Experimental data: patent US10174016B2 (BAYER AKTIENGESELLSCHAFT, priority 2014, dated 2019)
Read-outs that look alike come from different tables or passages of the source.

Tests used:
human P2X3 receptor = human P2X3 receptor (Homo sapiens (Human), UniProt P56373); assay: Intracellular calcium measurement (FLIPR, Fluo-4) of antagonist activity at human P2X3 receptors; assay type: cell-based; conditions: read-out: hP2X3 IC50
How it was run: (§1)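 Antagonism quantified from peak calcium fluorescence (Fluo-4, FLIPR, 90 sec read) evoked by EC80 α,β-Me-ATP, after a 30 min, 37° C. compound pretreatment in 1% DMSO. Human P2X3- or P2X2/3-expressing cells used; triplicate means fitted for IC50, percent maximal inhibition and Hill coefficient.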

human P2X2/3 receptor = human P2X2/3 receptor (Homo sapiens (Human), UniProt P56373+Q9UBL9); assay: Intracellular calcium measurement (FLIPR, Fluo-4) of antagonist activity at human P2X2/3 receptors; assay type: cell-based
How it was run: as §1

[1] = human P2X3, FLIPR calcium assay, agonist α,β-Me-ATP
[2] = human P2X2/3, FLIPR calcium assay, agonist α,β-Me-ATP, read-out: hP2X2/3 IC50

human P2X3 receptor, sequence (P56373 whole entry): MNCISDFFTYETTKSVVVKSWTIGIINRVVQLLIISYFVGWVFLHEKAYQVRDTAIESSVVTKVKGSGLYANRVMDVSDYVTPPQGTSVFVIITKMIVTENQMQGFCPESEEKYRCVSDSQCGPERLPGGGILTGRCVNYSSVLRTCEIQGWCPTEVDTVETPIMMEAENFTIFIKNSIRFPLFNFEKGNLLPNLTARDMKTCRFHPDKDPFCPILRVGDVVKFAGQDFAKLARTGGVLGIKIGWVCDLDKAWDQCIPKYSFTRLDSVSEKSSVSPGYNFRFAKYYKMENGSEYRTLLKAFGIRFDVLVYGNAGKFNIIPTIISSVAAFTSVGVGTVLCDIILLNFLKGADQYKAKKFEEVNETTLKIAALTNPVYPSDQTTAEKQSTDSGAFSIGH
human P2X2/3 receptor, sequence (P56373 whole entry): as above
human P2X2/3 receptor, sequence (Q9UBL9 whole entry): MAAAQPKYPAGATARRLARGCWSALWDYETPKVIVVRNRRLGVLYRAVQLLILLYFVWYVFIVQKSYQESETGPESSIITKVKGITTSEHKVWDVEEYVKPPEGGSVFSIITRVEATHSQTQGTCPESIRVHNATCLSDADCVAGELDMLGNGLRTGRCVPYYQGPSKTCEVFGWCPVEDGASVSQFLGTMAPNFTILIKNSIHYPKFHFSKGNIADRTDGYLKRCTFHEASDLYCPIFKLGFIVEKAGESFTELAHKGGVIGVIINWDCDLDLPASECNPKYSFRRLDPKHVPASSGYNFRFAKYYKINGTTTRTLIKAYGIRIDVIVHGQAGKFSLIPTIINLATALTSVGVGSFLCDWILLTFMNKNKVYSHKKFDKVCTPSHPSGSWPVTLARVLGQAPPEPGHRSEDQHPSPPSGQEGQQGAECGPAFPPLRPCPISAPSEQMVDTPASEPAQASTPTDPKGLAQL

Row | Compound | IC50 (human P2X3 receptor; [1]) | IC50 (human P2X2/3 receptor; [2]) | IC50 (human P2X3 receptor) | IC50 (human P2X2/3 receptor; hP2X2/3 IC50 (nM))
1 | Cc1ccc(CNC(=O)c2cc(OC[C@H]3CCOC3)cc(-c3ncc(C4CCC4)s3)c2)nn1 [Example 122, 3-(5-Cyclobutyl-1,3-thiazol-2-yl)-N-[(6-methylpyridazin-3-yl)methyl]-5-[(3S)-tetrahydrofuran-3-ylmethoxy]benzamide] | 106 nM | 1170 nM |  | 
2 | C[C@@H](NC(=O)c1cc(OC[C@H]2CCOC2)cc(-c2ncc(C3CCC3)s2)c1)c1cnc(C(F)(F)F)nc1 [Example 123, 3-(5-Cyclobutyl-1,3-thiazol-2-yl)-5-[(3S)-tetrahydrofuran-3-ylmethoxy]-N-{(1R)-1-[2-(trifluoromethyl)pyrimidin-5-yl]ethyl}benzamide] | 46 nM | 164 nM |  | 
3 | Cc1ncc([C@@H](C)NC(=O)c2cc(OCC3CCOCC3)cc(-c3ncc(C4CCC4)s3)c2)cn1 [Example 124, 3-(5-Cyclobutyl-1,3-thiazol-2-yl)-N-[(1R)-1-(2-methylpyrimidin-5-yl)ethyl]-5-(tetrahydro-2H-pyran-4-ylmethoxy)benzamide] | 27 nM | 165 nM |  | 
4 | CCc1cnc(-c2cc(OCC3CCOCC3)cc(C(=O)N[C@H](C)c3cnc(C)nc3)c2)s1 [Example 125, 3-(5-Ethyl-1,3-thiazol-2-yl)-N-[(1R)-1-(2-methylpyrimidin-5-yl)ethyl]-5-(tetrahydro-2H-pyran-4-ylmethoxy)benzamide] | 3 nM | 27 nM |  | 
5 | Cc1ncc([C@@H](C)NC(=O)c2cc(OCC3CCOCC3)cc(-c3ncc(C(C)C)s3)c2)cn1 [Example 126, N-[(1R)-1-(2-Methylpyrimidin-5-yl)ethyl]-3-[5-(propan-2-yl)-1,3-thiazol-2-yl]-5-(tetrahydro-2H-pyran-4-ylmethoxy)benzamide] | 34 nM | 532 nM |  | 
6 | CCc1cnc(-c2cc(OC3CCOCC3)cc(C(=O)N[C@H](C)c3ccc(C)nn3)c2)s1 [Example 128, 3-(5-Ethyl-1,3-thiazol-2-yl)-N-[(1R)-1-(6-methylpyridazin-3-yl)ethyl]-5-(tetrahydro-2H-pyran-4-yloxy)benzamide] | 10 nM | 91 nM |  | 
7 | CCc1cnc(-c2cc(OC3CCOCC3)cc(C(=O)N[C@H](C)c3cnc(C(F)(F)F)nc3)c2)s1 [Example 129, 3-(5-Ethyl-1,3-thiazol-2-yl)-5-(tetrahydro-2H-pyran-4-yloxy)-N-{(1R)-1-[2-(trifluoromethyl)pyrimidin-5-yl]ethyl}benzamide] | 3 nM | 33 nM |  | 
8 | Cc1ncc([C@@H](C)NC(=O)c2cc(O[C@H]3CCOC3)cc(-c3ncc(C)s3)c2)cn1 [Example 130, N-[(1R)-1-(2-Methylpyrimidin-5-yl)ethyl]-3-(5-methyl-1,3-thiazol-2-yl)-5-[(3S)-tetrahydrofuran-3-yloxy]benzamide] |  |  | 74 nM | 1350 nM
9 | Cc1ccc(Oc2cc(C(=O)N[C@H](C)c3cnc(C)cn3)cc(-c3ncc(C)s3)c2)cn1 [Example 131, N-[(1R)-1-(5-methylpyrazin-2-yl)ethyl]-3-[(6-methylpyridin-3-yl)oxy]-5-(5-methyl-1,3-thiazol-2-yl)benzamide] | 134 nM | 730 nM |  | 
10 | Cc1cnc(-c2cc(O[C@H]3CCOC3)cc(C(=O)NC(C)c3ncc(F)cc3Cl)c2)s1 (stereo partly drawn) [Example 132, N-[1-(3-Chloro-5-fluoropyridin-2-yl)ethyl]-3-(5-methyl-1,3-thiazol-2-yl)-5-[(3S)-tetrahydrofuran-3-yloxy]benzamide] | 75 nM | 2050 nM |  | 
11 | Cc1ccc(CNC(=O)c2cc(O[C@H]3CCOC3)cc(-c3ncc(C)s3)c2)nn1 [Example 133, N-[(6-Methylpyridazin-3-yl)methyl]-3-(5-methyl-1,3-thiazol-2-yl)-5-[(3S)-tetrahydrofuran-3-yloxy]benzamide] | 177 nM | ≥ 10000 nM |  | 
12 | Cc1cnc(-c2cc(O[C@H]3CCOC3)cc(C(=O)NC(C)c3ncc(Cl)cc3F)c2)s1 (stereo partly drawn) [Example 134, N-[1-(5-Chloro-3-fluoropyridin-2-yl)ethyl]-3-(5-methyl-1,3-thiazol-2-yl)-5-[(3S)-tetrahydrofuran-3-yloxy]benzamide] | 15 nM | 210 nM |  | 
13 | Cc1ccc([C@@H](C)NC(=O)c2cc(OC[C@H]3CCOC3)cc(-c3ncc(C4CCC4)s3)c2)nn1 [Example 135, 3-(5-Cyclobutyl-1,3-thiazol-2-yl)-N-[(1R)-1-(6-methylpyridazin-3-yl)ethyl]-5-[(3S)-tetrahydrofuran-3-ylmethoxy]benzamide] | 35 nM | 209 nM |  | 
14 | COCCOc1cc(C(=O)N[C@H](C)c2cnc(C)nc2)cc(-c2ncc(C)s2)c1 [Example 136, 3-(2-Methoxyethoxy)-N-[(1R)-1-(2-methylpyrimidin-5-yl)ethyl]-5-(5-methyl-1,3-thiazol-2-yl)benzamide] | 196 nM | 2780 nM |  | 
15 | Cc1cnc(-c2cc(OC3CCN(C(=O)OC(C)(C)C)CC3)cc(C(=O)N[C@H](C)c3cnc(C(F)(F)F)nc3)c2)s1 [Example 137, tert-Butyl 4-[3-(5-methyl-1,3-thiazol-2-yl)-5-({(1R)-1-[2-(trifluoromethyl)pyrimidin-5-yl]ethyl}carbamoyl)phenoxy]piperidine-1-carboxylate] |  | 328 nM | 26 nM | 
16 | Cc1cnc(-c2cc(OC3CCN(C)CC3)cc(C(=O)N[C@H](C)c3cnc(C(F)(F)F)nc3)c2)s1 [Example 139, 3-[(1-Methylpiperidin-4-yl)oxy]-5-(5-methyl-1,3-thiazol-2-yl)-N-{(1R)-1-[2-(trifluoromethyl)pyrimidin-5-yl]ethyl}benzamide] | 8 nM | 962 nM |  | 
17 | Cc1cnc(-c2cc(OC3CCN(C(C)C)CC3)cc(C(=O)N[C@H](C)c3cnc(C(F)(F)F)nc3)c2)s1 [Example 140, 3-(5-Methyl-1,3-thiazol-2-yl)-5-{[1-(propan-2-yl)piperidin-4-yl]oxy}-N-{(1R)-1-[2-(trifluoromethyl)pyrimidin-5-yl]ethyl}benzamide] | 33 nM | 1300 nM |  | 
18 | Cc1cnc(-c2cc(O[C@@H]3CCN(C)C3)cc(C(=O)N[C@H](C)c3cnc(C(F)(F)F)nc3)c2)s1 [Example 141, 3-{[(3R)-1-Methylpyrrolidin-3-yl]oxy}-5-(5-methyl-1,3-thiazol-2-yl)-N-{(1R)-1-[2-(trifluoromethyl)pyrimidin-5-yl]ethyl}benzamide] | 43 nM | 2200 nM |  | 
19 | Cc1cnc(-c2cc(O[C@H]3CCN(C)C3)cc(C(=O)N[C@H](C)c3cnc(C(F)(F)F)nc3)c2)s1 [Example 142, 3-{[(3S)-1-Methylpyrrolidin-3-yl]oxy}-5-(5-methyl-1,3-thiazol-2-yl)-N-{(1R)-1-[2-(trifluoromethyl)pyrimidin-5-yl]ethyl}benzamide] | 6 nM | 222 nM |  | 
20 | Cc1cnc(-c2cc(OC3CN(C)C3)cc(C(=O)N[C@H](C)c3cnc(C(F)(F)F)nc3)c2)s1 [Example 143, 3-[(1-Methylazetidin-3-yl)oxy]-5-(5-methyl-1,3-thiazol-2-yl)-N-{(1R)-1-[2-(trifluoromethyl)pyrimidin-5-yl]ethyl}benzamide] | 84 nM | 3050 nM |  | 
21 | C#CCOc1cc(C(=O)N[C@@H](C)c2cnc(C(F)(F)F)nc2)cc(-c2ncc(C)s2)c1 [Example 144, 3-(5-Methyl-1,3-thiazol-2-yl)-5-(prop-2-yn-1-yloxy)-N-{(1S)-1-[2-(trifluoromethyl)pyrimidin-5-yl]ethyl}benzamide] | 825 nM | ≥ 10000 nM |  | 
